Experimental data: the supplement of paper PMC4862054

Tests used:
Conditions in all cases: incubation time: 72 h
HDQ-P1 [1] = assay: drug sensitivity score (DSS), CellTiter-Blue viability (DSS (AUC-based score)); higher = stronger viability inhibition; extreme values may be limits of the assay
Protocol: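 DSRT with the CellTiter-Blue (resazurin reduction) viability readout, fluorescence 560/590 nm, 72 h incubation. Plates were normalised to DMSO and benzethonium chloride controls. DSS is computed from the area under the fitted dose-response curve (5 or 9 concentrations).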

CAL-148 [2] = assay: normalised viability (% of control), CellTiter-Blue; higher = more viable cells (about 100 = DMSO control)
Protocol: (§1)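 DSRT, CellTiter-Blue viability, 72 h incubation. Signal is normalised to DMSO and benzethonium chloride controls. Value is the normalised response at dose 3.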

DU-4475 [3] = assay: as above
Protocol: as §1

HCC1599 = assay: as above
Protocol: as §1

HDQ-P1 [4] = assay: as above
Protocol: as §1

CAL-120 = assay: as above
Protocol: as §1

CAL-51 [5] = assay: as above
Protocol: as §1

BT-549 = assay: as above
Protocol: as §1

MDA-MB-436 = assay: as above
Protocol: as §1

CAL-85-1 [6] = assay: as above
Protocol: as §1

MDA-MB-453 [7] = assay: as above
Protocol: as §1

MDA-MB-468 = assay: as above
Protocol: as §1

Hs578T [8] = assay: as above
Protocol: as §1

MFM-223 = assay: as above
Protocol: as §1

HCC1937 [9] = assay: as above
Protocol: as §1

SK-BR-3 = assay: as above
Protocol: as §1

BT-474 = assay: as above
Protocol: as §1

MDA-MB-231 [10] = assay: as above
Protocol: as §1

HCC1143 = assay: as above
Protocol: as §1

HCC1937 [11] = assay: drug sensitivity score (DSS), CellTox Green (DSS (AUC-based score)); higher = stronger drug effect (viability inhibition or cytotoxicity); extreme values may be limits of the assay
In short: (§2)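 In 384-well plates, compound was laid out at 5 concentrations in 10-fold steps over a 10,000-fold range specific to each compound, and breast cancer cell lines were seeded on top in 20 µl suspension for a 72 h incubation. CellTox Green fluorescence and then CellTiter-Glo luminescence were read, and each plate was normalised to 0.1 % DMSO and a positive kill control. The drug sensitivity score was calculated from the area under the fitted dose-response curve.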

MDA-MB-231 [12] = assay: as above
In short: as §2

Hs578T [13] = assay: as above
In short: as §2

CAL-148 [14] = assay: normalised viability (% of control), CellTiter-Blue; higher = more viable cells (about 100 = DMSO control); remark: listed apart in the source
Protocol: (§3)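 DSRT, CellTiter-Blue viability, 72 h incubation. Signal is normalised to DMSO and benzethonium chloride controls. Value is the normalised response at dose 9.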

DU-4475 [15] = assay: as above; remark: listed apart in the source
Protocol: as §3

HDQ-P1 [16] = assay: as above; remark: listed apart in the source
Protocol: as §3

CAL-51 [17] = assay: as above; remark: listed apart in the source
Protocol: as §3

CAL-85-1 [18] = assay: as above; remark: listed apart in the source
Protocol: as §3

MDA-MB-453 [19] = assay: as above; remark: listed apart in the source
Protocol: as §3

SMILES	drug sensitivity score (HDQ-P1 [1])	normalised viability (CAL-148 [2]; 10 nM)	normalised viability (DU-4475 [3]; 10 nM)	normalised viability (HCC1599; 100 nM)	normalised viability (HDQ-P1 [4]; 10 nM)	normalised viability (CAL-120; 100 nM)	normalised viability (CAL-51 [5]; 10 nM)	normalised viability (BT-549; 100 nM)	normalised viability (MDA-MB-436; 100 nM)	normalised viability (CAL-85-1 [6]; 10 nM)	normalised viability (MDA-MB-453 [7]; 10 nM)	normalised viability (MDA-MB-468; 100 nM)	normalised viability (Hs578T [8]; 100 nM)	normalised viability (MFM-223; 100 nM)	normalised viability (HCC1937 [9]; 100 nM)	normalised viability (SK-BR-3; 100 nM)	normalised viability (BT-474; 100 nM)	normalised viability (MDA-MB-231 [10]; 100 nM)	normalised viability (HCC1143; 100 nM)	drug sensitivity score (HCC1937 [11])	other results
CN1CCC(COc2cnc(-c3cccc(Cn4nc(-c5cccc(C#N)c5)ccc4=O)c3)nc2)CC1	2.71	79.1%	98.3%	116%	86.3%	108%	92.9%	81.5%	92.3%	94.4%	89.3%	95%	76.3%	96.9%	94%	68.9%	102%	83.4%	109%	0	drug sensitivity score (MDA-MB-231 [12]): 0
CN(C)C/C=C/C(=O)Nc1cc2c(Nc3ccc(F)c(Cl)c3)ncnc2cc1O[C@H]1CCOC1 [Afatinib]	15.3	79.9%	95.1%	84.6%	94.3%	71.8%	107%	104%	84.7%	84.7%	81.4%	60.9%	84.2%	84.8%	93.4%	15.2%	34.8%	90.3%	71%	1.72	drug sensitivity score (Hs578T [13]): 1.68; drug sensitivity score (MDA-MB-231 [12]): 0
CN1CC[C@H](c2c(O)cc(O)c3c(=O)cc(-c4ccccc4Cl)oc23)[C@H](O)C1 [Alvocidib]	19	85.4%	93%	82.4%	106%	68.2%	103%	95.6%	99.7%	93.8%	98.1%	91.5%	51.5%	76.3%	69.4%	46.9%	96.4%	82.9%	69.7%	0	drug sensitivity score (Hs578T [13]): 8.33; drug sensitivity score (MDA-MB-231 [12]): 16.5
Nc1nc(Cl)nc2c1ncn2[C@H]1C[C@H](O)[C@@H](CO)O1 [Cladribine]	0	–	–	–	–	–	–	–	–	–	–	–	–	–	–	–	–	–	–	0	normalised viability (CAL-148 [2]; 1 nM): 97.4%; normalised viability (DU-4475 [3]; 1 nM): 108%; normalised viability (HCC1599; 10 nM): 105%; normalised viability (HDQ-P1 [4]; 1 nM): 120%; normalised viability (CAL-120; 10 nM): 97.4%; normalised viability (CAL-51 [5]; 1 nM): 114%; normalised viability (BT-549; 10 nM): 92%; normalised viability (MDA-MB-436; 10 nM): 96.9%; normalised viability (CAL-85-1 [6]; 1 nM): 107%; normalised viability (MDA-MB-453 [7]; 1 nM): 112%; normalised viability (MDA-MB-468; 10 nM): 104%; normalised viability (Hs578T [8]; 10 nM): 98.4%; normalised viability (MFM-223; 10 nM): 85%; normalised viability (HCC1937 [9]; 10 nM): 84.8%; normalised viability (SK-BR-3; 10 nM): 95%; normalised viability (BT-474; 10 nM): 118%; normalised viability (MDA-MB-231 [10]; 10 nM): 83%; normalised viability (HCC1143; 10 nM): 85.5%; drug sensitivity score (Hs578T [13]): 0; drug sensitivity score (MDA-MB-231 [12]): 0.0524
Nc1ccn([C@@H]2O[C@H](CO)[C@@H](O)[C@@H]2O)c(=O)n1 [Cytarabine]	0	86.6%	137%	110%	94.6%	82.4%	94.4%	67.9%	91.9%	110%	109%	95.1%	65.1%	103%	76.3%	81.2%	101%	86.3%	86%	0	drug sensitivity score (Hs578T [13]): 0; drug sensitivity score (MDA-MB-231 [12]): 0
COc1cc(Nc2ncc3c(n2)-c2ccc(Cl)cc2C(c2c(F)cccc2OC)=NC3)ccc1C(=O)O [MLN8237]	14.2	94.7%	102%	97.7%	111%	68.2%	98.2%	62.2%	91.5%	95%	84.3%	62.6%	51.3%	77.7%	65.7%	53%	72.6%	75.5%	71.2%	–	–
Clc1ccc(C(c2ccccc2Cl)C(Cl)Cl)cc1 (stereo not drawn) [Mitotane]	0	93.1%	98.6%	107%	99.1%	86.3%	112%	98.5%	105%	99.9%	102%	98.8%	99.8%	93.9%	95.6%	112%	127%	91.7%	89.6%	1.4	drug sensitivity score (Hs578T [13]): 0
N#CC[C@H](C1CCCC1)n1cc(-c2ncnc3[nH]ccc23)cn1 [Ruxolitinib]	0	102%	101%	99.3%	74.4%	97.5%	84.9%	74.5%	94.5%	96.4%	93%	100%	79.2%	93.2%	81.1%	85.1%	107%	90.8%	107%	–	drug sensitivity score (Hs578T [13]): 0; drug sensitivity score (MDA-MB-231 [12]): 0
C[C@]1(c2nc3c(C(N)=O)cccc3[nH]2)CCCN1 [Veliparib] (10000 nM)	–	–	–	–	–	–	–	–	–	–	–	–	–	–	–	–	–	–	–	–	normalised viability (CAL-148 [14]): 94.9%; normalised viability (DU-4475 [15]): 81%; normalised viability (HDQ-P1 [16]): 93.2%; normalised viability (CAL-51 [17]): 94.7%; normalised viability (CAL-85-1 [18]): 78.9%; normalised viability (MDA-MB-453 [19]): 94.9%
CC[C@]1(O)C[C@@H]2CN(CCc3c([nH]c4ccccc34)[C@@](C(=O)OC)(c3cc4c(cc3OC)N(C)[C@H]3[C@@](O)(C(=O)OC)[C@H](OC(C)=O)[C@]5(CC)C=CCN6CC[C@]43[C@@H]65)C2)C1 [Vinblastine] (1000 nM)	–	–	–	–	–	–	–	–	–	–	–	–	–	–	–	–	–	–	–	–	normalised viability (CAL-148 [14]): 22.7%; normalised viability (DU-4475 [15]): 7.08%; normalised viability (HDQ-P1 [16]): 39.6%; normalised viability (CAL-51 [17]): 11.4%; normalised viability (CAL-85-1 [18]): 44.6%; normalised viability (MDA-MB-453 [19]): 36.3%
CS(=O)(=O)c1ccc(C(=O)Nc2ccc(Cl)c(-c3ccccn3)c2)c(Cl)c1 [Vismodegib] (10000 nM)	–	–	–	–	–	–	–	–	–	–	–	–	–	–	–	–	–	–	–	–	normalised viability (CAL-148 [14]): 81.6%; normalised viability (DU-4475 [15]): 123%; normalised viability (HDQ-P1 [16]): 89.3%; normalised viability (CAL-51 [17]): 109%; normalised viability (CAL-85-1 [18]): 104%; normalised viability (MDA-MB-453 [19]): 86.5%
